Common to all, as to format: physicochemical
Data set [1] can be described thus: Breakdown voltage, alternating current 50 Hz, method 2 (ramp 1000 V/30 s, asymmetric point/disc electrodes). Also noted: unit not given here. The conditions noted are these: 50 Hz AC, 1000V every 30 s, point ø 0,6, disc ø 39,6, mean (extreme values). The text has this: (§1) Nous avons comparé différents liquides par la mesure de leur tension de claquage en courant alternatif 50 Hz dans les 2 conditions suivantes (méthodes 1 et 2) : • 1 - rampe 2000 V/s - électrodes dissymétriques. • pointe diamètre 0,6 mm • disque à bords arrondis Rogowski, diamètre 39,6 mm • distance interélectrode = 3,2 mm • 2 - rampe 1000 V/30s - électrodes dissymétriques • pointe diamètre 0,6 mm • disque diamètre 39,6 mm • distance 3,2-10-15-20 mm

A short description of data set [2]: Crystallisation of the dielectric liquids at low temperature and on storage. The conditions noted are these: for cristallise: general description, products prepared from orthoxylene. An excerpt:
Cristallisation du produit XXO1 de l'exemple 1, du produit XX02 de l'exemple 1, et d'un mélange de 85 % en poids de XXO1 et 15 % en poids de XX02 (voir exemple 1) qu'on appelle XX05.
On effectue les mêmes essais que dans l'exemple 3 mais avec des produits XX01 et XX02 préparés comme dans l'exemple 1 sauf qu'on utilise un mélange de 75 % d'orthoxylène et 25 % de paraxylène ou bien de 100 % d'orthoxylène.

Data set [3] in a line: Breakdown voltage, alternating current 50 Hz, method 1 (ramp 2000 V/s, asymmetric point/disc electrodes). Particulars: 50 Hz AC, point ø 0,6 mm, disc ø 39,6 mm, inter-electrode distance 3,2 mm, mean (extreme values).
From the text: as §1

As for (méthylbenzyl)xylène [XX01], the tension de claquage was 41,2 (37,7-45,3) (5) in data set [1] (inter-electrode distance 3,2 mm), 69,5 (65,3-75,8) (5) in data set [1] (inter-electrode distance 10 mm), 82,4 (74-89) (5) in data set [1] (inter-electrode distance 15 mm) and 93,8 (90,0-105,0) (5) in data set [1] (inter-electrode distance 20 mm). For the same substance, the Cristallisation in data set [2] (Example 3, products of Example 1 (from orthoxylene)) was -40 °C. In addition, in data set [2], the cristallise was -40 °C.
On to di(méthylbenzyl)xylène, for which the cristallise result in data set [2] is given as “solide à la température ambiante”.
As to dodécylbenzène ramifié [DDB], the tension de claquage in data set [3] is on record as 39,0 (34,9-44,4) (10).

(Values after patent publication EP0443899A1, “Process for synthetising oligomers of (methylbenzyl)xylene and their use as dielectric” (ELF ATOCHEM S.A., priority 1990, dated 1991).)
